From patent publication US11708562B2, “Differentiation of human embryonic stem cells” (Janssen Biotech, Inc., priority 2006, dated 2023)

What was measured:
H9 cultures = test: Definitive endoderm on varying concentrations of […] with Wnt-3a (real-time PCR); format: cell-based, human; details: low serum, 100 ng/ml activin A and 20 ng/ml Wnt-3a
Experimental: H9 cells were cultured on plates coated with regular […] at a 1:60 to 1:10 dilution. The plates were coated with […] for 1 hr at room temperature.

[1] = system: human embryonic stem cell line H9; test: Formation of pancreatic endocrine cells expressing Nkx2.2 (PCR); format: cell-based; details: activin A for the first three days of culture
Experimental: Cells were continuously cultured for another 3 to 5 days in basal medium with retinoic acid at 1 μM, alone or with bFGF. RNA samples were harvested from cells at various time points along this process to help evaluate the directed differentiation of the cells. Furthermore, culture medium and factors were regularly removed and replenished throughout the differentiation protocol.

[2] = system: H9P49 and H1P46 embryonic stem cells; test: Definitive endoderm on MATRIGEL: effective dose of activin A with GSK-3B inhibitor or Wnt-3A; format: cell-based, human
Description: FIGS. 31A, 31B, 31C and 31D is for H9P49 cells and FIGS. 31E and 31F is for H1P46 cells.

[3] = system: human embryonic stem cell line H9; test: PCR of definitive endoderm and other lineage markers after activin A, cells on mouse embryonic fibroblasts; format: cell-based; details: 100 ng/ml activin A
Description: (§1) The level of expression of definitive endoderm markers was examined by PCR (FIGS. 1A and 1B), FACS (results summarized in Table I), and immunohistochemistry (FIGS. 2A, 2B and 2C).
Cells were harvested at the time points indicated in FIGS. 3A, 3B, 3C and 3D and assayed by PCR for the expression of genes shown (FIGS. 3A, 3B, 3C, 3D, 4A, 4B, 5A and 5B).
RNA samples were purified by binding to a silica-gel membrane (Rneasy Mini Kit, Qiagen, CA) in the presence of an ethanol-containing, high-salt buffer followed by washing to remove contaminants. The RNA was further purified using a TURBO DNA-free kit (Ambion, INC), and high-quality RNA was then eluted in water. Yield and purity were assessed by A260 and A280 readings on a spectrophotometer. cDNA copies were made from purified RNA using an ABI (ABI, CA) high capacity cDNA archive kit.
Final data were expressed relative to a calibrator sample.

[4] = system: human embryonic stem cell line H7; test: FACS protein expression with time following activin A treatment (Table IIB); format: cell-based; details: AA 100 ng/ml
Experimental: as §1
Adhered cells were removed from culture plates by five-minute incubation with TrypLE™ Express solution (Invitrogen, CA). Released cells were resuspended in human embryonic stem cell culture medium and recovered by centrifugation, followed by washing and resuspending the cells in a staining buffer consisting of 2% BSA, 0.05% sodium azide in PBS (Sigma, MO). As appropriate, the cells were Fc-receptor blocked for 15 minutes using a 0.1% γ-globulin (Sigma) solution. […] Controls included appropriate isotype matched antibodies, unstained cells, and cells stained only with secondary conjugated antibody. All incubations with antibodies were performed for 30 mins at 4° C. after which the cells were washed with the staining buffer. Samples that were stained with unconjugated primary antibodies were incubated for an additional 30 mins at 4° C. with secondary conjugated PE or -APC labeled antibodies. See Table I for a list of secondary antibodies used. Washed cells were pelleted and resuspended in the staining buffer, and the cell surface molecules were identified using a FACS Array (BD Biosciences) instrument, collecting at least 10,000 events.

Activin A: a member of the TGFβ superfamily; growth factor (R&D Systems) used to differentiate human embryonic stem cells
expression of CXCR4, GATA4, Goosecoid, HNF-3beta, and SOX-17 genes (H9 cultures): led to the expression | Pdx1 expression compared to samples containing no activin A [1]: maintained Pdx1 expression | lineage formed at lower doses of activin A [2]: formation of extraembryonic endoderm | anterior endoderm markers Cerberus, Otx-1 and Hex genes [3]: significant up regulation | expression of extraembryonic endoderm markers Sox7 and AFP ([3]; up to seven days): time-dependent decrease | CXCR4+ C-Kit+ cells (FACS) ([4]; 1-day): 2.97% | CXCR4+ CD9+ cells (FACS) ([4]; 1-day): 8.13% | CXCR4+ EPCAM+ cells (FACS) ([4]; 1-day): 14.58% | CXCR4+ cells (FACS) ([4]; 1-day): 6% | CXCR4+ C-Kit+ cells (FACS) ([4]; 3-day): 31.56% | CXCR4+ CD9+ cells (FACS) ([4]; 3-day): 24.11% | CXCR4+ EPCAM+ cells (FACS) ([4]; 3-day): 36.67% | CXCR4+ cells (FACS) ([4]; 3-day): 38% | CXCR4+ C-Kit+ cells (FACS) ([4]; 5-day): 55.21% | CXCR4+ CD9+ cells (FACS) ([4]; 5-day): 2.1% | CXCR4+ EPCAM+ cells (FACS) ([4]; 5-day): 54.5% | CXCR4+ cells (FACS) ([4]; 5-day): 65.5%
